Entries after “also recorded” stand apart in the source; their conditions may differ.
Columns and labels:
[1] = test system: eye bank eyes; experiment: Dye solution instilled by injection into the anterior chamber of eye bank eyes, viewed by naked eye / operating microscope; set-up: species or system human; details: for egress of dye from the eye into outflow vessels after injection into the anterior chamber: eye bank eyes, Indigo Carmine 0.004, 0.04, 0.4 wt. %, other ophthalmic dyes for comparison
Text: After an incision is made into the anterior chamber of the eye, a small amount of aqueous humor is expressed and the dye solution is instilled by injection into the anterior chamber. The dye solution is typically left in place for 30 seconds, during which time it stains the anterior capsule of the lens. Excess dye solution is then expelled, usually using a viscoelastic device or flushed out with a balanced salt solution.
Dye solutions containing 0.004 wt. %, 0.04 wt. %, and 0.4 wt. % of Indigo Carmine (prepared by serial dilutions of a 0.4 wt. % Indigo Carmine solution provided by Micro-Tech (Nanjing) Co.) were instilled by injection into the anterior chamber of seven eye bank eyes following the dye solution instillation procedure detailed above.
Special imaging techniques were not required.

[2] = test system: ocular surface squamous neoplastic lesion; experiment: Topical application of dye to a human eye, slit lamp view of ocular surface squamous neoplastic lesion; format: in vivo
Text: FIG. 8 is a slit lamp view of a human eye wherein an ocular surface squamous neoplastic lesion is delineated after topical application of Indigo Carmine. A blue outline is seen around the perimeter of the white ocular surface squamous neoplastic lesion.
In certain embodiments, the dye delineates eye surface dysplasia and malignancy (ocular surface squamous neoplasia) as has been found in the gut (see, e.g., Oyama, T., “Diagnostic strategies of superficial Barrett's esophageal cancer for endoscopic submucosal dissection”, Dig. Endosc., 2013, 25 Suppl 1:7-12) (see FIG. 7)

[3] = test system: porcine eye; experiment: Dye injected into the lenticular plain after Small Incision Lenticule Extraction (SMILE) in a porcine eye; details: injected along the laser incision planes
Text: FIG. 9A is an operating microscope view of a porcine eye upon which a Small Incision Lenticule Extraction procedure (SMILE) has been carried out. From this view, circular horizontal plains have been cut in the corneal stroma, a superficial smaller diameter cut and a deeper cut of larger diameter. The cuts join in the corneal periphery, thereby creating a lenticule. The arrows show the edge of these cuts.
FIG. 9B is an operating microscope view of a porcine eye upon which a Small Incision Lenticule Extraction procedure (SMILE) has been carried out. Indigo Carmine has been injected into the lenticular plain. The white arrows indicate the complete circular edge of the lenticule.
Minimally invasive corneal procedures for correcting refractive error (see, e.g., Titiyal, J. S., et al., “Learning Curve of Small Incision Lenticule Extraction: Challenges and Complications”, Cornea, 2017, 36:1377-1382) have also been developed in recent years. For example, in Small Incision Lenticule Extraction (SMILE), a lenticule of corneal stroma is created within the stroma using a laser and then removed through a small incision. Occasionally, the cuts that create the lenticule are discontinuous, making lenticule extraction difficult. […]

[4] = test system: protein; details: sodium salt; cited from earlier work
[5] = cited from earlier work
[6] = reduced state, fluorescent; cited from earlier work
[7] = test system: anterior capsule; details: cited from earlier work
[8] = test system: ocular structures; details: cited from earlier work
[9] = anterior chamber perfused with dye solution, sodium salt

O=C1C(=C2Nc3ccc(S(=O)(=O)[O-])cc3C2=O)Nc2ccc(S(=O)(=O)[O-])cc21.[Na+].[Na+] [Indigo Carmine, 5,5′-indigodisulfonic acid sodium salt]
staining of the canal of Schlemm [1, 9]: heavily; also recorded: heavy staining | staining of the trabecular meshwork [1, 9]: lightly; also recorded: more lightly stained | visibility of dye in the collector channels on the surface of the eye ([1]; at each concentration: 0.004, 0.04 and 0.4 wt. %): visible to the naked eye of the surgeon as it appeared in the collector channels on the surface of the eye | staining of the anterior capsule of the lens ([1]; capsulorhexis procedure, eye bank eye): lightly stained | dye in the deep scleral plexus ([1]; conjunctiva reflected away, sodium salt): observed in the deep scleral plexus; also recorded: deeper vessels are seen, evidence of the deep scleral plexus | egress of dye from the eye into outflow vessels after injection into the anterior chamber ([1]; sodium salt): appeared in the fine vessels in the conjunctiva adjacent to the limbus, the aqueous veins and the conjunctival venous system; also recorded: some of the dye exiting the eye through the aqueous veins | visibility of dye on the surface of the instilled eye ([1]; no special imaging): easily visible to the naked eye of the surgeon | delineation of ocular surface squamous neoplastic lesion [2]: delineated | identification of laser incision planes and lenticule edge [3]: possible to identify and determine the extent of these incisions | protein binding [4]: low protein binding; also recorded: relatively reduced | solubility in water [5]: soluble in water | absorption maximum [6]: 436 nm | emission maximum [6]: 528 nm

CC1(C)C(/C=C/C=C/C=C/C=C2\N(CCCCS(=O)(=O)O)c3ccc4ccccc4c3C2(C)C)=[N+](CCCCS(=O)(=O)[O-])c2ccc3ccccc3c21 [Indocyanine Green]
egress of dye from the eye into outflow vessels after injection into the anterior chamber [1]: appears to remain within the eye

CCN(CC)c1ccc(C(=C2C=CC(=[N+](CC)CC)C=C2)c2cc(O)c(S(=O)(=O)O)cc2S(=O)(=O)O)cc1 [Patent Blue]
egress of dye from the eye into outflow vessels after injection into the anterior chamber [1]: appears to remain within the eye

Cc1cc(-c2ccc(/N=N/c3c(S(=O)(=O)O)cc4cc(S(=O)(=O)O)cc(N)c4c3O)c(C)c2)ccc1/N=N/c1c(S(=O)(=O)O)cc2cc(S(=O)(=O)O)cc(N)c2c1O [Trypan Blue]
staining of the trabecular meshwork ([1]; anterior chamber perfused with dye solution): particularly enhances trabecular meshwork staining | egress of dye from the eye into outflow vessels after injection into the anterior chamber [1]: appears to remain within the eye | lowest concentration at which staining can occur [7]: 0.0125 wt. % | identifying and visualizing anterior lens capsule and trabecular meshwork [8]: effective | identifying or visualizing the canal of Schlemm [8]: not effective

Brilliant Blue
egress of dye from the eye into outflow vessels after injection into the anterior chamber [1]: appears to remain within the eye

Reference: patent US20220151827A1, “Ophthalmic Compositions, and Ocular Uses Thereof, of Indigo Carmine” (priority 2019, published 2022)
